# According to PubChem BioAssay AID1996:
# Conditions: buffer; pH 7.4; 200.0 µM
row,solubility kinetic,Compound
1,> 49.1 µg/mL,Fc1ccc(-c2nnc(N3CCOCC3)c3ccccc23)cc1F
2,4.3 µg/mL,Cc1ccccc1N1CCN(Cc2ccc(Br)o2)CC1
3,> 44.6 µg/mL,CC(C)(C)NC(=O)COC(=O)CCC(=O)c1cccs1
4,> 40.8 µg/mL,O=C(O)c1cc(-n2cccc2)ccc1N1CCOCC1
5,> 25.5 µg/mL,O=C(O)CSc1ncccn1
6,2.8 µg/mL,COc1cccc(NCc2cc(=O)oc3cc(C)c(C(C)C)cc23)c1
7,29.2 µg/mL,Cc1cc(C=NCCO)c(C)n1-c1cc(Cl)ccc1Cl
8,36.4 µg/mL,COc1ccc(C)cc1-n1c(C)cc(C=O)c1C
9,5.1 µg/mL,CC(=O)N=c1c(C#N)cc2c(=O)n3cccc(C)c3nc2n1Cc1ccco1
10,> 52.3 µg/mL,CC(=O)c1ccc(N2CCN(C(=S)NCCCN(C)C)CC2)cc1
11,> 44.3 µg/mL,Cc1csc(NC(=O)Cn2nc(C)c([N+](=O)[O-])c2C)n1
12,> 39.6 µg/mL,N#Cc1c(-c2cccc(Cl)c2)[nH]c(=S)[nH]c1=O
13,> 55.6 µg/mL,N#CCCN(C(=O)COC(=O)CCC(=O)c1cccs1)c1ccccc1
14,0.7 µg/mL,Cc1ccccc1NC(=O)Cn1cc(C(=O)C2CC2)c2ccccc21
15,> 46.6 µg/mL,CCNC(=S)N1CCC(C(=O)c2ccc(Cl)cc2)CC1
16,10.9 µg/mL,O=C(COC(=O)c1cc(F)cc(F)c1)Nc1cccnc1Cl
17,> 43.7 µg/mL,COC(=O)c1cnn2c1C(=O)N(Cc1cccs1)CC2
18,< 0.3 µg/mL,C#CCSc1nc2sc3c(c2c(=O)n1C)CCC3
19,3.4 µg/mL,CCOC(=O)c1sc(=S)n(Cc2ccccc2)c1C
20,39 µg/mL,O=C1OC(C(=O)NCc2ccccc2)Cc2ccccc21 (stereo unspecified)
21,> 30.8 µg/mL,Nc1ncncc1-c1ccc(Cl)cc1
22,3.4 µg/mL,O=C(COc1ccccc1)N1CCN=C1SCc1cccc(F)c1
23,> 42.5 µg/mL,Cc1cccc(C(=O)NCCNC(=O)c2ccccn2)c1
24,< 0.3 µg/mL,Clc1ccc(-c2csc(N3CCCCCC3)n2)cc1
25,> 41.2 µg/mL,COc1ccc(C(C)=O)cc1CSC(=N)N.Cl
26,31.8 µg/mL,COc1ccc(Cl)cc1C(=O)NCc1ccco1
27,29.5 µg/mL,CC(NC(=O)c1ccc([N+](=O)[O-])o1)C12CC3CC(CC(C3)C1)C2 (stereo unspecified)
28,34.5 µg/mL,COc1cc(OC)c(OC)cc1/C=C1/C(=O)N=C(N)N1C
29,> 50.9 µg/mL,Cn1cnc2c1c(=O)n(Cc1ccc(Cl)cc1Cl)c(=O)n2C
30,1.3 µg/mL,CC(=O)c1cnc(-c2cccc(Cl)c2)s1

# Second part, the compound before the results:
row,Compound,solubility kinetic
1,CN1CCN(c2cc(C(F)(F)F)nc3ccc(F)cc23)CC1,43.5 µg/mL
2,N#Cc1ccc(OCC(=O)NC2CCCCCC2)cc1,> 40.9 µg/mL
3,O=C(NC(=S)NC(CO)Cc1ccccc1)c1ccc(F)cc1 (stereo unspecified),4.9 µg/mL
4,O=C(/C=C/c1ccco1)N(Cc1ccccc1)C1CCS(=O)(=O)C1 (stereo unspecified),47.1 µg/mL
5,CC1CC(C)(C)NC(=S)N1CCCC(=O)Nc1ccccc1F (stereo unspecified),> 50.6 µg/mL
6,CCOC(=O)c1cc(/C(C)=N/OC(=O)c2ccc(Cl)cc2)on1,0.6 µg/mL
7,Cl.O=C(NCCN1CCCC1)c1ccc(Cl)cc1Cl,> 48.5 µg/mL
8,O=C(C(Cl)Cl)N1CCN(Cc2ccc3c(c2)OCO3)CC1,42.6 µg/mL
9,O=S(=O)(c1ccc(Cl)nc1)N1CCCC1,> 37 µg/mL
10,COc1ccccc1OCCCOc1cccc(/C=C2\SC(=O)NC2=O)c1,< 0.8 µg/mL
11,Oc1ccccc1-c1nc2ccccc2nc1-c1ccccc1,25.1 µg/mL
12,Fc1ccc(NC(=S)Nc2cccc3ccccc23)cc1,16.7 µg/mL
13,FC(F)(F)c1nc(=S)c2ccccc2[nH]1,34.5 µg/mL
14,CC1CCC(NC(=O)CC(NC(N)=O)c2ccccc2Cl)CC1 (stereo unspecified),46.6 µg/mL
15,CCOc1ccc(Cl)cc1CNCCCSc1ncccn1,43 µg/mL
16,N/C(=N\[N+](=O)[O-])N1CCN(C(=O)OC2CCCC2)CC1,> 42.8 µg/mL

row,Compound,solubility kinetic
1,O=c1[nH]cc(S(=O)(=O)N2CCOCC2)c(=O)[nH]1,> 39.2 µg/mL
2,Cc1cc(C)n2nc(SCC(=O)Nc3ccccc3F)nc2n1,> 49.7 µg/mL
3,Cc1nc2ccc(C(=O)Nc3ccccc3Cl)cc2s1,14.2 µg/mL
4,COc1ccc(OC)c([C@@H](O)[C@H](C)NC(C)(C)C)c1.Cl,> 45.6 µg/mL
5,Cc1cccc(NC(=O)N2C3CCCC2CC(NC(=O)C2CC2)C3)c1 (stereo unspecified),22.7 µg/mL
6,O=C(NC1CC1)C1CCCN(C(=O)NC2CCCCC2)C1 (stereo unspecified),> 44 µg/mL
7,O=C(CCCl)Nc1nc2c(s1)CCc1ccccc1-2,7.2 µg/mL
8,CCC(CC)NC(=O)Cc1ccc(F)cc1,> 33.5 µg/mL
9,CCc1ccccc1NC(=O)Nc1cnccn1,6.1 µg/mL
10,COc1ccc2cc(S(=O)(=O)Nc3ccccn3)ccc2c1,10 µg/mL
11,O=C(c1c[nH]c2ccccc12)N1CCN(c2ccccc2)CC1,> 45.8 µg/mL
12,Cn1c(CNc2ccc(F)cc2)nc2ccccc21,> 38.3 µg/mL
13,O=C1CN(S(=O)(=O)c2cccc(C(=O)O)c2)c2ccccc2N1,> 49.8 µg/mL
14,CC(=O)c1ccc(NC(=O)CCc2ccc(C)o2)cc1,36.7 µg/mL
15,O=c1cc(O)c2ccccc2n1Cc1ccccc1F,> 40.4 µg/mL
